Test results published in ChEMBL document CHEMBL5331060, “Bisindole natural products: A vital source for the development of new anticancer drugs” (Eur J Med Chem, 2022).
Values after ≈ are worked out from the molar mass of the structure shown. One block for each compound: values may come before it.

Assays:
[1] = tested on: A549; experiment: Antiproliferative activity against human A549 cells assessed as inhibition of cell growth; type: functional, cell-based
[2] = tested on: HL-60; experiment: Antiproliferative activity against human HL-60 cells assessed as inhibition of cell growth; type: functional, cell-based
[3] = tested on: SMMC-7721; experiment: Antiproliferative activity against human SMMC-7721 cells assessed as inhibition of cell growth; type: functional, cell-based
[4] = tested on: MCF7; experiment: Antiproliferative activity against human MCF7 cells assessed as inhibition of cell growth; type: functional, cell-based
[5] = tested on: SW480; experiment: Antiproliferative activity against human SW480 cells assessed as inhibition of cell growth; type: functional, cell-based
[6] = tested on: SMMC-7721; experiment: Antiproliferative activity against human SMMC-7721 cells assessed as inhibition of cell growth incubated for 48 hrs by MTS assay; type: functional, cell-based; conditions: SMMC-7721, 48 h
[7] = tested on: HT-29; experiment: Antiproliferative activity against human HT-29 cells assessed as inhibition of cell growth incubated for 48 hrs by MTS assay; type: functional, cell-based; conditions: HT-29, 48 h
[8] = tested on: A549; experiment: Antiproliferative activity against human A549 cells assessed as inhibition of cell growth incubated for 48 hrs by MTS assay; type: functional, cell-based; conditions: A549, 48 h
[9] = tested on: HeLa; experiment: Antiproliferative activity against human HeLa cells assessed as inhibition of cell growth incubated for 48 hrs by MTT assay; type: functional, cell-based
[10] = tested on: MCF7; experiment: Antiproliferative activity against human MCF7 cells assessed as inhibition of cell growth incubated for 48 hrs by MTT assay; type: functional, cell-based; conditions: MCF7, 48 h
[11] = tested on: SW480; experiment: Antiproliferative activity against human SW480 cells assessed as inhibition of cell growth incubated for 48 hrs by MTT assay; type: functional, cell-based; conditions: SW480, 48 h
[12] = tested on: KB; experiment: Antiproliferative activity against human KB cells assessed as inhibition of cell growth incubated for 72 hrs by neutral red based colorimetric assay; type: functional
[13] = tested on: CAKI-2; experiment: Antiproliferative activity against human CAKI-2 cells assessed as inhibition of cell growth incubated for 24 hrs by SRB assay; type: functional, cell-based; conditions: CAKI-2, 24 h
[14] = tested on: MCF7; experiment: Antiproliferative activity against human MCF7 cells assessed as inhibition of cell growth incubated for 24 hrs by SRB assay; type: functional, cell-based; conditions: MCF7, 24 h
[15] = tested on: LS174T; experiment: Antiproliferative activity against human LS174T cells assessed as inhibition of cell growth incubated for 24 hrs by SRB assay; type: functional, cell-based
[16] = Antiproliferative activity against human StMl1 1a cells assessed as inhibition of cell growth incubated for 24 hrs by SRB assay; type: functional, cell-based
[17] = tested on: HT-29; experiment: Antiproliferative activity against human HT-29 cells assessed as inhibition of cell growth incubated for 48 hrs by SRB assay; type: functional, cell-based
[18] = tested on: MDA-MB-231; experiment: Antiproliferative activity against human MDA-MB-231 cells assessed as inhibition of cell growth incubated for 72 hrs by MTT assay; type: functional, cell-based; conditions: MDA-MB-231, 72 h
[19] = tested on: Huh-7; experiment: Antiproliferative activity against human Huh-7 cells assessed as inhibition of cell growth incubated for 72 hrs by MTT assay; type: functional, cell-based; conditions: Huh-7, 72 h
[20] = Antiproliferative activity against human AV3 cells assessed as inhibition of cell growth incubated for 72 hrs by MTT assay; type: functional, cell-based; conditions: AV3, 72 h
[21] = tested on: HeLa; experiment: Antiproliferative activity against human HeLa cells assessed as inhibition of cell growth incubated for 6 hrs; type: functional, cell-based
[22] = tested on: HeLa; experiment: Antiproliferative activity against human HeLa cells assessed as inhibition of cell growth incubated for 24 hrs; type: functional, cell-based
[23] = tested on: HCT-116; experiment: Antiproliferative activity against human HCT-116 cells assessed as inhibition of cell growth; type: functional, cell-based
[24] = tested on: A549; experiment: Antiproliferative activity against human A549 cells assessed as inhibition of cell growth incubated for 72 hrs by SRB assay; type: functional, cell-based; conditions: A549, 72 h
[25] = tested on: MCF7; experiment: Antiproliferative activity against human MCF7 cells assessed as inhibition of cell growth incubated for 72 hrs by SRB assay; type: functional, cell-based; conditions: MCF7, 72 h
[26] = tested on: HCT-116; experiment: Cytotoxicity against human HCT-116 cells assessed as reduction in cell viability at 20 uM measured after 48 hrs by MTS assay relative to control; type: functional
[27] = tested on: P388; experiment: Antiproliferative activity against mouse P388 cells assessed as inhibition of cell growth; type: functional, cell-based

SMILES: CC[C@@]12C=C(C(=O)OC)C3Nc4cc(OC)c(O)cc4[C@@]34CCN([C@@H]3c5cc6c(cc5O[C@@H]3[C@H]1O)NC1=C(C(=O)OC)C[C@]3(CC)[C@@H]5O[C@@H]5CN5CC[C@@]16[C@@H]53)[C@@H]24 (some centres not stated)
- IC50 [6]: > 40 µM
- IC50 [7]: > 40 µM
- IC50 [8]: > 40 µM
- IC50 [9]: 1.42 µM
- IC50 [10]: 1.42 µM
- IC50 [11]: 1.42 µM

SMILES: CC[C@]12C=CCN3CC[C@]4(C(=C(C(=O)OC)C1)Nc1cc5c(cc14)[C@@H]1[C@H](O5)[C@@H](O)[C@@]4(CC)CC(C(=O)OC)=C5Nc6c(ccc(OC)c6OC)[C@@]56CCN1[C@@H]46)[C@@H]32
- IC50 [6]: 0.3 µM
- IC50 [7]: 0.75 µM
- IC50 [8]: 3.41 µM
- IC50 [9]: 1.42 µM
- IC50 [10]: 1.42 µM
- IC50 [11]: 1.42 µM

SMILES: C/C=C1/CN2CC[C@@]34c5cc(OC)c(-c6cc7c8c(n(C)c7cc6OC)[C@@H]6[C@H]7O[C@@H](C)[C@H](CN6C(=O)C(C)C)[C@H]7[C@H]8C(=O)OC)c(C)c5N(C)[C@@]23CC[C@H]1[C@H]4C(=O)OC
- IC50 [12]: 6 µM

SMILES: C/C=C1/CCN2CC[C@@]34c5cc6c(cc5N(C)[C@]35OC[C@]4(C(=O)OC)[C@@H]1[C@H]25)O[C@@]12[C@@H]3C[C@H]4/C(=C\C)CN3CC[C@]1(C6)c1ccccc1N2[C@@H]4C(=O)OC
- IC50 [18]: 9.8 µM
- IC50 [19]: 9.8 µM
- IC50 [20]: 9.8 µM

SMILES: N[C@H](CNC(=O)C(=O)c1c[nH]c2ccccc12)c1c[nH]c2cc(Br)ccc12
- IC50 [21]: 165 µM
- IC50 [22]: 146 µM

SMILES: CC[C@@]12CC(C(=O)OC)=C3Nc4cc5c(cc4[C@@]34CCN(C[C@H]3O[C@H]31)[C@@H]24)[C@@H]1[C@H](O5)[C@@H](O)[C@@]2(CC)CC(C(=O)OC)=C3Nc4c(cc(O)c(OC)c4OC)[C@@]34CCN1[C@@H]24 [CONOPHYLLINE]
- IC50 [1]: 0.17 µM
- IC50 [3]: 0.17 µM
- IC50 [4]: 0.17 µM
- IC50 [5]: 0.17 µM

SMILES: COc1cc2c(cc1CC(C(C)=O)[C@@H]1C[C@H]3c4c(c5ccccc5n4C)C[C@@H]([C@@H]1CO)N3C)c1c(n2C)[C@@H]2C[C@H]3C(C(C)=O)=COC[C@H]3[C@H](C1)N2C (some centres not stated)
- IC50 [27]: 12.3 mg/L (≈ 17.4 µM)

Further lines, with some results ahead:

- IC50 [1]: 0.17 µM
- IC50 [2]: 0.17 µM
- IC50 [3]: 0.17 µM
- IC50 [4]: 0.17 µM
- IC50 [5]: 0.17 µM
SMILES: C/C=C1\CN(C)[C@H]2Cc3c([nH]c4ccccc34)[C@H](c3c(O)ccc4c5c([nH]c34)[C@]3(C(=O)OC)C[C@@H]4C[C@H](CC)[C@@H]3N(CC5)C4)C[C@H]1[C@]2(CO)C(=O)OC

- IC50 [14]: 2 µM
- IC50 ([17]; HT-29, 48 h): 8 µM
SMILES: C/C=C1/CN2CC[C@@]34C[C@H]5[C@@H]6C[C@H]7c8c(c9ccccc9n8C)C[C@@H]([C@@H]6CO[C@@]5(C)O[C@@]35[C@@H]2C[C@@H]1[C@@H](C(=O)OC)N5c1ccccc14)N7C
- IC50 [13]: 2 µM
- IC50 [15]: 2 µM
- IC50 [16]: 2 µM

- IC50 [1]: 3.8 µM
- IC50 [2]: 3.8 µM
- IC50 [4]: 3.8 µM
- IC50 [23]: 3.8 µM
SMILES: C=C1[C@H]2C[C@@H]3N(CC[C@@]34c3cccc5c3N(C[C@H]3[C@H]6C[C@@H]7N(CC[C@@]78c7ccccc7N[C@@]538)C[C@H]6CC)[C@@H]14)C[C@H]2CC

- IC50 [24]: 10.9 µM
- IC50 [25]: 10.9 µM
SMILES: CC[C@H]1CN(C)[C@H]2Cc3c([nH]c4ccccc34)[C@H](c3c(OC)ccc4c5c([nH]c34)[C@]3(C(=O)OC)C[C@@H]4C[C@H](CC)[C@@H]3N(CC5)C4)C[C@H]1[C@@H]2C(=O)OC
- Activity [26]: 40%

- IC50 [12]: 0.008 µM
SMILES: CC[C@]1(O)C[C@@H]2CN(CCc3c([nH]c4ccccc34)[C@@](C(=O)OC)(c3cc4c(cc3OC)N(C)[C@H]3[C@@](O)(C(=O)OC)[C@H](OC(C)=O)[C@]5(CC)C=CCN6CC[C@]43[C@@H]65)C2)C1 [VINBLASTINE]

- EC50 ([17]; HT-29, time 48 hrs, read-out: ED50 (the source's name)): 6.5 µM
SMILES: C/C=C1/C[N+]2(C)CC[C@@]34C[C@H]5[C@@H]6C[C@H]7c8c(c9ccccc9n8C)C[C@@H]([C@@H]6CO[C@@]5(C)O[C@@]35[C@@H]2C[C@@H]1[C@@H](C(=O)OC)N5c1ccccc14)N7C (some centres not stated)
